Strand notation (5' to 3'): a small letter for the sugar, then the base; units joined by * are phosphorothioate-linked, units joined directly phosphodiester-linked; [ ] holds rarer units or linkages, { } end groups; capitals alone tell only the bases. e = 2'-O-(2-methoxyethyl) (MOE); [5mC] = 5-methylcytosine; d = 2'-deoxy (DNA)
Columns and labels:
human B7.2 mRNA = assay: Human B7.2 mRNA levels in THP-1 cells by quantitative real-time PCR (Example 27); type: cell-based; parameters: concentration or dose not given beside the values
Description: In accordance with the present invention, an additional series of antisense compounds were designed to target different regions of the human B7.2 RNA, using published sequences (GenBank accession number U04343.1, incorporated herein as SEQ ID NO: 295, GenBank accession number BC040261.1, incorporated herein as SEQ ID NO: 296 and GenBank accession number NT—005543.12, a portion of which is incorporated herein as SEQ ID NO: 297). “Target site” indicates the first (5′-most) nucleotide number on the particular target sequence to which the compound binds. All compounds in Table 25 are chimeric oligonucleotides (“gapmers”) 20 nucleotides in length, composed of a central “gap” region consisting of ten 2′-deoxynucleotides, which is flanked on both sides (5′ and 3′ directions) by five-nucleotide “wings”. The wings are composed of 2′-methoxyethyl (2′-MOE)nucleotides. The internucleoside (backbone) linkages are phosphorothioate (P═S) throughout the oligonucleotide. All cytidine residues are 5-methylcytidines. The compounds were analyzed for their effect on human B7.2 mRNA levels in THP-1 cells by quantitative real-time PCR as described in other examples herein. Data are averages from three experiments. If present, “N.D.” indicates “no data”.

Human B7-1 mRNA = Human B7-1 mRNA expression in COS-7 cells, screened as in Example 4; type: cell-based

| Substance | % INHIB (inhibition of human B7.2 mRNA levels) (human B7.2 mRNA) [%] | % mRNA EXPRESSION (Human B7-1 mRNA; human B7-1 mRNA, Table 7) [%] | % mRNA INHIBITION (Human B7-1 mRNA; human B7-1 mRNA, Table 7) [%] | also measured |
| --- | --- | --- | --- | --- |
| 323671 (antisense eG*eA*eA*eA*e[5mC]*dA*dG*dA*d[5mC]*dA*dA*dG*d[5mC]*dT*dG*eA*eT*eG*eG*eA) [compound 323671] | 26 |  |  |  |
| 323640 (antisense e[5mC]*eT*e[5mC]*eT*eT*dT*dG*d[5mC]*d[5mC]*dT*dA*dA*dG*dT*dA*eT*eA*e[5mC]*e[5mC]*eT) [compound 323640] | 28 |  |  |  |
| 323666 (antisense eA*e[5mC]*e[5mC]*eA*eT*d[5mC]*dA*dT*dA*d[5mC]*dT*d[5mC]*dG*dA*dT*eA*eG*eT*eT*eG) [compound 323666] | 71 |  |  |  |
| 323694 (antisense eA*eA*eT*eG*eA*dA*dT*dA*d[5mC]*dT*dT*dG*dT*dA*dT*eG*eG*eG*e[5mC]*eT) [compound 323694] | 71 |  |  |  |
| 323692 (antisense eG*eT*eA*eT*eG*dG*dG*d[5mC]*dT*dT*dT*dA*d[5mC]*dT*d[5mC]*eT*eT*eT*eA*eA) [compound 323692] | 57 |  |  |  |
| 323682 (antisense eT*e[5mC]*e[5mC]*eA*eT*dT*dT*d[5mC]*d[5mC]*dA*dT*dA*dG*dA*dA*eT*eT*eA*eG*eA) [compound 323682] | 35 |  |  |  |
| 323638 (antisense eG*eT*eA*eT*eA*d[5mC]*d[5mC]*dT*d[5mC]*dA*dT*dT*d[5mC]*dA*dG*eA*eA*e[5mC]*e[5mC]*eA) [compound 323638] | 20 |  |  |  |
| 323660 (antisense eG*eG*eG*eT*eA*dA*d[5mC]*d[5mC]*dG*dT*dG*dT*dA*dT*dA*eG*eA*eT*eG*eA) [compound 323660] | 71 |  |  |  |
| 323631 (antisense eA*eG*eT*e[5mC]*eT*d[5mC]*dA*dT*dT*dG*dA*dA*dA*dT*dA*eA*eG*e[5mC]*eT*eT) [compound 323631] | 56 |  |  |  |
| 323665 (antisense eG*eA*eT*eA*eG*dT*dT*dG*dA*dA*dT*dT*d[5mC]*dT*dT*eG*eG*eT*eT*e[5mC]) [compound 323665] | 43 |  |  |  |
| 323657 (antisense eT*e[5mC]*eT*eG*eT*dT*dA*dT*dA*dT*dT*dA*dG*dA*dA*eA*eT*eT*eG*eG) [compound 323657] | 43 |  |  |  |
| 323634 (antisense eA*eA*eA*eT*eA*d[5mC]*dT*dA*d[5mC]*dT*dA*dG*d[5mC]*dT*d[5mC]*eA*e[5mC]*eT*e[5mC]*eA) [compound 323634] | 30 |  |  |  |
| 323675 (antisense eA*eG*e[5mC]*eT*e[5mC]*dT*dA*dT*dA*dG*dA*dG*dA*dA*dA*eG*eG*eT*eG*eA) [compound 323675] | 77 |  |  |  |
| 323659 (antisense eG*eT*eA*eT*eA*dG*dA*dT*dG*dA*dG*d[5mC]*dA*dG*dG*eT*e[5mC]*eA*eA*eA) [compound 323659] | 56 |  |  |  |
| 323681 (antisense e[5mC]*eA*eT*e[5mC]*eA*d[5mC]*dA*d[5mC]*dA*dT*dA*dT*dA*dA*dT*eA*eA*e[5mC]*eT*eG) [compound 323681] | 8 |  |  |  |
| 323689 (antisense eT*eT*e[5mC]*eA*eT*d[5mC]*dA*dG*dA*dT*d[5mC]*dT*dT*dT*d[5mC]*eA*eG*eG*eT*eA) [compound 323689] | 43 |  |  |  |
| 323656 (antisense e[5mC]*eT*eA*eT*eT*dT*d[5mC]*dA*dG*dG*dT*dT*dG*dA*d[5mC]*eT*eG*eA*eA*eG) [compound 323656] | 76 |  |  |  |
| 323688 (antisense eT*eG*eG*eT*e[5mC]*dT*dG*dT*dT*d[5mC]*dA*d[5mC]*dT*d[5mC]*dT*e[5mC]*eT*eT*e[5mC]*e[5mC]) [compound 323688] | 58 |  |  |  |
| 22331 (antisense eG*eA*eA*eG*e[5mC]*dT*dG*dT*dG*dG*dT*dT*dG*dG*dT*eT*eG*eT*e[5mC]*eA) [compound 22331] |  | 62 | 38 |  |
| 323632 (antisense eA*eG*eG*eT*e[5mC]*dT*dG*d[5mC]*dA*dG*dT*d[5mC]*dT*d[5mC]*dA*eT*eT*eG*eA*eA) [compound 323632] | 41 |  |  |  |

| Substance | % INHIB (inhibition of human B7.2 mRNA levels) (human B7.2 mRNA) [%] | % mRNA EXPRESSION (Human B7-1 mRNA; human B7-1 mRNA, Table 7) [%] | % mRNA INHIBITION (Human B7-1 mRNA; human B7-1 mRNA, Table 7) [%] | also measured |
| --- | --- | --- | --- | --- |
| 323684 (antisense eA*eT*eT*eT*eA*dT*dA*dA*dG*dA*dG*dT*dT*dG*d[5mC]*eG*eA*eG*eG*e[5mC]) [compound 323684] | 32 |  |  |  |
| 323629 (antisense e[5mC]*e[5mC]*eA*eG*eA*dG*dA*dG*d[5mC]*dA*dG*dG*dA*dA*dG*eG*e[5mC]*e[5mC]*eA*eT) [compound 323629] | 36 |  |  |  |
| 323678 (antisense eA*eG*eT*eA*e[5mC]*dA*dG*d[5mC]*dT*dG*dT*dA*dA*dT*d[5mC]*e[5mC]*eA*eA*eG*eG) [compound 323678] | 23 |  |  |  |
| 22336 (antisense eA*eG*e[5mC]*e[5mC]*e[5mC]*d[5mC]*dT*dT*dG*d[5mC]*dT*dT*d[5mC]*dT*dG*e[5mC]*eG*eG*eA*e[5mC]) [compound 22336] |  | 55 | 45 |  |
| 22318 (eG*eT*eG*eA*eA*dA*dG*d[5mC]*d[5mC]*dA*dA*d[5mC]*dA*dA*dT*eT*eT*eG*eG*eA; antisense) [compound 22318] |  | 63 | 37 |  |
| 22333 (antisense eA*eA*eG*eG*eT*dA*dA*dT*dG*dG*d[5mC]*d[5mC]*d[5mC]*dA*dG*eG*eA*eT*eG*eG) [compound 22333] |  | 73 | 27 |  |
| 22328 (antisense eG*eG*eA*eA*eG*dT*d[5mC]*dA*dG*d[5mC]*dT*dT*dT*dG*dA*e[5mC]*eT*eG*eA*eT) [compound 22328] |  | 64 | 36 |  |
| 22329 (antisense e[5mC]*e[5mC]*eT*e[5mC]*e[5mC]*dA*dG*dA*dG*dG*dT*dT*dG*dA*dG*e[5mC]*eA*eA*eA*eT) [compound 22329] |  | 59 | 41 |  |
| 22315 (eT*eT*eT*eA*eG*dT*dT*dT*d[5mC]*dA*d[5mC]*dA*dG*d[5mC]*dT*eT*eG*e[5mC]*eT*eG) [compound 22315] |  | 49 |  |  |
| 22339 (antisense eG*eT*eA*eA*eA*dA*d[5mC]*dA*dG*d[5mC]*dT*dT*dA*dA*dA*eT*eT*eT*eG*eT) [compound 22339] |  | 69 | 31 |  |
| 22314 (eT*eG*eA*eA*eG*dA*dA*dA*dA*dA*dT*dT*d[5mC]*d[5mC]*dA*e[5mC]*eT*eT*eT*eT; antisense) [compound 22314] |  | 69 | 31 |  |
| 22340 (antisense eA*eG*eA*eA*eG*dA*dG*dG*dT*dT*dA*d[5mC]*dA*dT*dT*eA*eA*eG*e[5mC]*eA) [compound 22340] |  | 71 | 29 |  |
| 22313 (eA*eG*eA*e[5mC]*eT*d[5mC]*d[5mC]*dA*d[5mC]*dT*dT*d[5mC]*dT*dG*dA*eG*eA*eT*eG*eT; antisense) [compound 22313] |  | 75 | 25 |  |
| 22319 (e[5mC]*eA*eT*eG*eG*d[5mC]*dT*dT*d[5mC]*dA*dG*dA*dT*dG*d[5mC]*eT*eT*eA*eG*eG; antisense) [compound 22319] |  | 68 | 32 |  |
| 22326 (antisense eG*eT*eA*eT*eG*dT*dG*d[5mC]*d[5mC]*d[5mC]*dT*d[5mC]*dG*dT*d[5mC]*eA*eG*eA*eT*eG) [compound 22326] |  | 62 | 38 |  |
| 22321 (eG*eA*e[5mC]*e[5mC]*eA*dG*d[5mC]*d[5mC]*dA*dG*d[5mC]*dA*d[5mC]*d[5mC]*dA*eA*eG*eA*eG*e[5mC]; antisense) [compound 22321] |  | 57 | 43 |  |
| 22332 (antisense eT*eT*eG*eA*eA*dG*dG*dT*d[5mC]*dT*dG*dA*dT*dT*d[5mC]*eA*e[5mC]*eT*e[5mC]*eT) [compound 22332] |  | 67 | 33 |  |
| 24733 (antisense eG*e[5mC]*eG*eT*e[5mC]*dA*dT*d[5mC]*dA*dT*d[5mC]*d[5mC]*dG*d[5mC]*dA*e[5mC]*e[5mC]*eA*eT*e[5mC]) [compound 24733] |  |  |  | % mRNA EXPRESSION (Human B7-1 mRNA; 10 nM, COS-7, Table 8): 90%; % mRNA INHIBITION (Human B7-1 mRNA; 10 nM, COS-7, Table 8): 10%; % mRNA EXPRESSION (Human B7-1 mRNA; 30 nM, COS-7, Table 8): 91%; % mRNA INHIBITION (Human B7-1 mRNA; 30 nM, COS-7, Table 8): 9%; % mRNA EXPRESSION (Human B7-1 mRNA; 100 nM, COS-7, Table 8): 90%; % mRNA INHIBITION (Human B7-1 mRNA; 100 nM, COS-7, Table 8): 10%; % mRNA EXPRESSION (Human B7-1 mRNA; 300 nM, COS-7, Table 8): 80%; % mRNA INHIBITION (Human B7-1 mRNA; 300 nM, COS-7, Table 8): 20% |
| 24735 (antisense eG*e[5mC]*eT*e[5mC]*eA*d[5mC]*dG*dA*dA*dG*dA*dA*d[5mC]*dA*d[5mC]*e[5mC]*eT*eT*e[5mC]*e[5mC]) [compound 24735] |  |  |  | % mRNA EXPRESSION (Human B7-1 mRNA; 10 nM, COS-7, Table 8): 100%; % mRNA EXPRESSION (Human B7-1 mRNA; 30 nM, COS-7, Table 8): 95%; % mRNA INHIBITION (Human B7-1 mRNA; 30 nM, COS-7, Table 8): 5%; % mRNA EXPRESSION (Human B7-1 mRNA; 100 nM, COS-7, Table 8): 81%; % mRNA INHIBITION (Human B7-1 mRNA; 100 nM, COS-7, Table 8): 19%; % mRNA EXPRESSION (Human B7-1 mRNA; 300 nM, COS-7, Table 8): 75%; % mRNA INHIBITION (Human B7-1 mRNA; 300 nM, COS-7, Table 8): 25% |
| 13805 (antisense C^{S}C^{S}T^{S}G^{S}C^{S}C^{S}T^{S}C^{S}C^{S}G^{S}T^{S}G^{S}T^{S}G^{S}T^{S}G^{S}G^{S}C^{S}C^{S}C; as printed in the source, key not given here) [compound 13805] |  | 46 | 54 |  |

Source: patent publication US7897582B2, “Oligonucleotide compositions and methods for the modulation of the expression of B7 protein” (Isis Pharmaceuticals, Inc., priority 2003, dated 2011)
